Assay: In vitro drug release test
Type: physicochemical
Details: 0.1 M phosphate buffer pH 7.4, 37° C.
Method: This mixture was placed in a glass vessel, and thereto was added 98.5 mL of 0.1 M phosphate buffer (pH 7.4). The entire mixture was shaken in a water bath at 37° C., and the in vitro drug release test was started. […] As a control, the powder of each drug in the same amount was charged into the chamber described above, and the release test was conducted in the same manner.
2) On day 1, 2, 6, 14, 29 after starting the test, the buffer was sampled in its entirety, which was analyzed using high performance liquid chromatography. Also, after the sampling, 98.5 mL of 0.1 M phosphate buffer (pH 7.4) was freshly added, and the release test was continued.

CC1(C)O[C@@H]2C[C@H]3[C@@H]4C[C@H](F)C5=CC(=O)C=C[C@]5(C)[C@@]4(F)[C@@H](O)C[C@]3(C)[C@]2(C(=O)CO)O1 [Fluocinolone acetonide powder, fluocinolone acetonide]
In vitro drug release rate (%) (Day 1): 57.6% | In vitro drug release rate (%) (Day 2): 73.4%

From patent US20060286173A1, “Drug delivery system for sub-tenon s capsule adminstration of fine grains” (priority 2003, published 2006)
